One may read the IC50 as the point on the concentration scale where inhibition reaches its midpoint.

The values that follow come from US20240190890A1, “MK2 INHIBITORS AND USES THEREOF” (Bristol-Myers Squibb Company, priority 2022, published 2024).

This experiment addresses p38a activated, mitogen-activated protein kinase-activated protein kinase 2 (MAPKAP-K2 or MK2) enzyme (Homo sapiens (Human), UniProt P49137). Put plainly: MK2 Omnia continuous-read kinase assay for compound potency. It is filed as biochemical. The settings on record: [MK-2]=0.4 nM, [ATP]=10 μM, [ST3-Sox]=10 μM; room temperature. In outline:
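p38a-activated MK2 (0.4 nM) with 10 μM ATP (apparent Km) and 10 μM S/T3-Sox peptide in Tris pH 7.5 buffer with MgCl2, EGTA and DTT. Fluorescence (ex360/em485) read continuously for 120 min at room temperature. IC50 from initial linear slopes; apparent kinact/KI from kobs of exponential progress-curve fits.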

p38a activated, mitogen-activated protein kinase-activated protein kinase 2 (MAPKAP-K2 or MK2) enzyme, sequence (P49137 whole entry): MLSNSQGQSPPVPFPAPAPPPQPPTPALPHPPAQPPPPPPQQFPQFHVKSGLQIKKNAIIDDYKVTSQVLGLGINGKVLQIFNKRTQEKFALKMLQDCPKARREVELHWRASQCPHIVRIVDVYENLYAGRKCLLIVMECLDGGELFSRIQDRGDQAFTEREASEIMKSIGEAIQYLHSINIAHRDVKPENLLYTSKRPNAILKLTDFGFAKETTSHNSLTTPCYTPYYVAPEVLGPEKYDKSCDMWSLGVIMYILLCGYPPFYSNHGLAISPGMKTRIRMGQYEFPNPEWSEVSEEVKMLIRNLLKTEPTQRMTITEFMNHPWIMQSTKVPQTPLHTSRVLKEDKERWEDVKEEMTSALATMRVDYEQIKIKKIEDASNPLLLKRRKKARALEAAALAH

As to `C=Cc1cc(-c2ccc3c(ccc4sc5c(c43)NC[C@@H](C)NC5=O)n2)c(CN2CC(F)(F)C2)cn1` [Example I-211, (R)-3-(5-((3,3-difluoroazetidin-1-yl)methyl)-2-vinylpyridin-4-yl)-10-methyl-9,10,11,12-tetrahydro-8H-[1,4]diazepino[5′,6′:4,5]thieno[3,2-f]quinolin-8-one], the IC50 came out at 275 nM.

In the case of `C#Cc1cc(-c2ccc3c(ccc4sc5c(c43)NC[C@@H](C)NC5=O)n2)c(OCCN2CCCC2)nn1` [Example I-120, (R)-3-(6-ethynyl-3-(2-(pyrrolidin-1-yl)ethoxy)pyridazin-4-yl)-10-methyl-9,10,11,12-tetrahydro-8H-[1,4]diazepino[5′,6′:4,5]thieno[3,2-f]quinolin-8-one], the IC50 amounted to 45 nM.

Consider `COc1nnc(/C=C/CN(C)C)cc1-c1ccc2c(ccc3sc4c(c32)NC[C@@H](C)NC4=O)n1` [Example I-145, (R,E)-3-(6-(3-(dimethylamino)prop-1-en-1-yl)-3-methoxypyridazin-4-yl)-10-methyl-9,10,11,12-tetrahydro-8H-[1,4]diazepino[5′,6′:4,5]thieno[3,2-f]quinolin-8-one], for which the IC50 came out at 273 nM.

For the compound `C=Cc1ccn(-c2ccc3c(ccc4sc5c(c43)NC[C@@H](C)NC5=O)n2)n1` [Example I-147, (R)-10-methyl-3-(3-vinyl-1H-pyrazol-1-yl)-9,10,11,12-tetrahydro-8H-[1,4]diazepino[5′,6′:4,5]thieno[3,2-f]quinolin-8-one], the IC50 is 104 nM.

Consider `C=C(C)c1cc(-c2ccc3c(ccc4sc5c(c43)NC[C@@H](C)NC5=O)n2)nc(COCC)n1` [Example I-37, (R)-3-(2-(ethoxymethyl)-6-(prop-1-en-2-yl)pyrimidin-4-yl)-10-methyl-9,10,11,12-tetrahydro-8H-[1,4]diazepino[5′,6′:4,5]thieno[3,2-f]quinolin-8-one], for which the half-inhibitory concentration (IC50) turned out to be 10 nM.

As for `C=Cc1cc(-c2ccc3c(ccc4sc5c(c43)NC[C@@H](C)NC5=O)n2)cc(N2CCC(C(F)(F)F)CC2)n1` [Example I-202, (R)-10-methyl-3-(2-(4-(trifluoromethyl)piperidin-1-yl)-6-vinylpyridin-4-yl)-9,10,11,12-tetrahydro-8H-[1,4]diazepino[5′,6′:4,5]thieno[3,2-f]quinolin-8-one], the IC50 was 674 nM.

On to `C=Cc1cc(-c2ccc3c(ccc4sc5c(c43)NC[C@@H](C)NC5=O)n2)cc(N2CCC(F)CC2)n1` [Example I-239, (R)-3-(2-(4-fluoropiperidin-1-yl)-6-vinylpyridin-4-yl)-10-methyl-9,10,11,12-tetrahydro-8H-[1,4]diazepino[5′,6′:4,5]thieno[3,2-f]quinolin-8-one], for which the IC50 was found to be 161 nM.

In the case of `C=Cc1cc(-c2ccc3c(ccc4sc5c(c43)NC[C@@H](C)NC5=O)n2)cc(C)n1` [Example I-110, (R)-10-methyl-3-(2-methyl-6-vinylpyridin-4-yl)-9,10,11,12-tetrahydro-8H-[1,4]diazepino[5′,6′:4,5]thieno[3,2-f]quinolin-8-one], the IC50 was 8 nM.

As to `C[C@@H]1CNc2c(sc3ccc4nc(-n5cnc(Cl)n5)ccc4c23)C(=O)N1` [Example I-210, (R)-3-(3-chloro-1H-1,2,4-triazol-1-yl)-10-methyl-9,10,11,12-tetrahydro-8H-[1,4]diazepino[5′,6′:4,5]thieno[3,2-f]quinolin-8-one], the IC50 was determined as 91 nM.

As to `C[C@@H]1CNc2c(sc3ccc4nc(-c5cc(Cl)nc(Cl)c5)ccc4c23)C(=O)N1` [Example I-68, (R)-3-(2,6-dichloropyridin-4-yl)-10-methyl-9,10,11,12-tetrahydro-8H-[1,4]diazepino[5′,6′:4,5]thieno[3,2-f]quinolin-8-one], the IC50 stood at 472 nM.

Take `C[C@@H]1CNc2c(sc3ccc4nc(-c5nc(Cl)cc(N6CCN(C)CC6)n5)ccc4c23)C(=O)N1` [Example I-43, (R)-3-(4-chloro-6-(4-methylpiperazin-1-yl)pyrimidin-2-yl)-10-methyl-9,10,11,12-tetrahydro-8H-[1,4]diazepino[5′,6′:4,5]thieno[3,2-f]quinolin-8-one]: the IC50 was 440 nM.

With `C[C@@H]1CNc2c(sc3ccc4nc(-c5ccnc(Cl)c5F)ccc4c23)C(=O)N1` [Example I-221, (R)-3-(2-chloro-3-fluoropyridin-4-yl)-10-methyl-9,10,11,12-tetrahydro-8H-[1,4]diazepino[5′,6′:4,5]thieno[3,2-f]quinolin-8-one], the IC50 was 212 nM.

For the compound `C=Cc1cc(-c2ccc3c(ccc4sc5c(c43)NC[C@@H](C)NC5=O)n2)cc(CN2C[C@@H](C)O[C@@H](C)C2)n1` [Example I-185, (R)-3-(2-(((2S,6R)-2,6-dimethylmorpholino)methyl)-6-vinylpyridin-4-yl)-10-methyl-9,10,11,12-tetrahydro-8H-[1,4]diazepino[5′,6′:4,5]thieno[3,2-f]quinolin-8-one], the half-inhibitory concentration (IC50) stood at 7 nM.

For the compound `C#Cc1cc(-c2ccc3c(ccc4sc5c(c43)NC[C@@H](C)NC5=O)n2)cc(N2CCNCC2)n1` [Example I-176, (R)-3-(2-ethynyl-6-(piperazin-1-yl)pyridin-4-yl)-10-methyl-9,10,11,12-tetrahydro-8H-[1,4]diazepino[5′,6′:4,5]thieno[3,2-f]quinolin-8-one], the concentration for half-maximal inhibition (IC50) stood at 70 nM.

Take `C#Cc1ncc(COCC)c(-c2ccc3c(ccc4sc5c(c43)NC[C@@H](C)NC5=O)n2)n1` [Example I-12, (R)-3-(5-(ethoxymethyl)-2-ethynylpyrimidin-4-yl)-10-methyl-9,10,11,12-tetrahydro-8H-[1,4]diazepino[5′,6′:4,5]thieno[3,2-f]quinolin-8-one]: the IC50 came to 87 nM.

For the compound `C#Cc1cc(-c2ccc3c(ccc4sc5c(c43)NC[C@@H](C)NC5=O)n2)cc(Cl)n1` [Example I-73, (R)-3-(2-chloro-6-ethynylpyridin-4-yl)-10-methyl-9,10,11,12-tetrahydro-8H-[1,4]diazepino[5′,6′:4,5]thieno[3,2-f]quinolin-8-one], the IC50 worked out at 75 nM.

Turning to `Cc1cnc(Cl)nc1-c1ccc2c(ccc3sc4c(c32)NC[C@@H](C)NC4=O)n1` [Example I-6, (R)-3-(2-chloro-5-methylpyrimidin-4-yl)-10-methyl-9,10,11,12-tetrahydro-8H-[1,4]diazepino[5′,6′:4,5]thieno[3,2-f]quinolin-8-one], the half-inhibitory concentration (IC50) was found to be 912 nM.

`C#Cc1nccc(-c2ccc3c(ccc4sc5c(c43)NC[C@@H](C)NC5=O)n2)n1` [Example I-40, (R)-3-(2-ethynylpyrimidin-4-yl)-10-methyl-9,10,11,12-tetrahydro-8H-[1,4]diazepino[5′,6′:4,5]thieno[3,2-f]quinolin-8-one]: the IC50 came to 25 nM.

As for `C#Cc1cc(-c2ccc3c(ccc4sc5c(c43)NC[C@@H](C)NC5=O)n2)c(N(C)C)nn1` [Example I-105, (R)-3-(3-(dimethylamino)-6-ethynylpyridazin-4-yl)-10-methyl-9,10,11,12-tetrahydro-8H-[1,4]diazepino[5′,6′:4,5]thieno[3,2-f]quinolin-8-one], the IC50 is 118 nM.

As for `C=Cc1ncc(COC2(C)CCC2)c(-c2ccc3c(ccc4sc5c(c43)NC[C@@H](C)NC5=O)n2)n1` [Example I-26, (R)-10-methyl-3-(5-((1-methylcyclobutoxy)methyl)-2-vinylpyrimidin-4-yl)-9,10,11,12-tetrahydro-8H-[1,4]diazepino[5′,6′:4,5]thieno[3,2-f]quinolin-8-one], the IC50 turned out to be 684 nM.

With `C/C=C/c1ncc(F)c(-c2ccc3c(ccc4sc5c(c43)NC[C@@H](C)NC5=O)n2)n1` [Example I-45, (R,E)-3-(5-fluoro-2-(prop-1-en-1-yl)pyrimidin-4-yl)-10-methyl-9,10,11,12-tetrahydro-8H-[1,4]diazepino[5′,6′:4,5]thieno[3,2-f]quinolin-8-one], the IC50 is 160 nM.

As for `C#Cc1cc(-c2ccc3c(ccc4sc5c(c43)NC[C@@H](C)NC5=O)n2)cc(CN2CCC(OC)CC2)n1` [Example I-122, (R)-3-(2-ethynyl-6-((4-methoxypiperidin-1-yl)methyl)pyridin-4-yl)-10-methyl-9,10,11,12-tetrahydro-8H-[1,4]diazepino[5′,6′:4,5]thieno[3,2-f]quinolin-8-one], the IC50 was 40 nM.

Take `C=Cc1nc(C)n(-c2ccc3c(ccc4sc5c(c43)NC[C@@H](C)NC5=O)n2)n1` [Example I-261, (R)-10-methyl-3-(5-methyl-3-vinyl-1H-1,2,4-triazol-1-yl)-9,10,11,12-tetrahydro-8H-[1,4]diazepino[5′,6′:4,5]thieno[3,2-f]quinolin-8-one]: the IC50 stood at 1000 nM.

For `C[C@@H]1CNc2c(sc3ccc4nc(-c5ccnc(C#CC(C)(C)N)c5)ccc4c23)C(=O)N1` [Example I-135, (R)-3-(2-(3-amino-3-methylbut-1-yn-1-yl)pyridin-4-yl)-10-methyl-9,10,11,12-tetrahydro-8H-[1,4]diazepino[5′,6′:4,5]thieno[3,2-f]quinolin-8-one], the IC50 was determined as 15 nM.

On to `[2H]C([2H])([2H])c1cnc(C=C)cc1-c1ccc2c(ccc3sc4c(c32)NC[C@@H](C)NC4=O)n1` [Example I-142, (R)-10-methyl-3-(5-(methyl-d3)-2-vinylpyridin-4-yl)-9,10,11,12-tetrahydro-8H-[1,4]diazepino[5′,6′:4,5]thieno[3,2-f]quinolin-8-one], for which the IC50 was 9 nM.

As to `C=Cc1cc(C(F)(F)F)nn1-c1ccc2c(ccc3sc4c(c32)NC[C@@H](C)NC4=O)n1` [Example I-241, (R)-10-methyl-3-(3-(trifluoromethyl)-5-vinyl-1H-pyrazol-1-yl)-9,10,11,12-tetrahydro-8H-[1,4]diazepino[5′,6′:4,5]thieno[3,2-f]quinolin-8-one], the IC50 is 1000 nM.

In the case of `C[C@@H]1CNc2c(sc3ccc4nc(-c5cc(N6CCN(C)CC6)nc(Cl)n5)ccc4c23)C(=O)N1` [Example I-16, (R)-3-(2-chloro-6-(4-methylpiperazin-1-yl)pyrimidin-4-yl)-10-methyl-9,10,11,12-tetrahydro-8H-[1,4]diazepino[5′,6′:4,5]thieno[3,2-f]quinolin-8-one], the IC50 was found to be 26 nM.
